{
  "source": "patent US20100189660A1",
  "about": "“METHODS FOR THE DETECTION OF FATTY-ACYLATED PROTEIN” (Genentech, Inc., priority 2009, published 2010)",
  "key": {"[1]": {"test_system": "MDCK cells", "test": "Metabolic incorporation of ω-alkynyl fatty-acyls onto cellular proteins, click with biotin-azide, streptavidin-HRP western blot", "type": "cell-based, canine", "conditions": "for degree of protein incorporation / time dependence of levels of labeled protein bands: 100 μM; for degree of protein incorporation: 24 h, western blot with streptavidin-HRP; for time dependence of levels of labeled protein bands: within 6 h; for dose dependence of metabolic incorporation: increasing concentration, at 4 h", "text": "Upon preparing the cellular proteome, the alkynyl group incorporated onto acylated proteins was chemoselectively ligated to azide-tagged biotin (for synthesis see Example 2) or fluorophore by a Cu(I)-catalyzed Huisgen alkyne-azide cycloaddition reaction (See, Wang, Q. et al. J. Am. Chem. Soc. 125, 3192-3193 (2003)) (FIG. 1C). The conjugated proteins were separated by gel electrophoresis and analyzed by Western blot using streptavidin-linked horseradish peroxidase (FIG. 2A). […] This was reasonable considering that the majority of protein lipid modifications in cells comprise myristoylation and palmitoylation.\nLabeling and detection of lipoproteins in cell extracts: The ω-alkynl fatty-acyl compounds used for the examples were dissolved in DMSO to generate 50 mM stock solutions, and were stored at −80° C. Before cell treatment, the analogs were dissolved in DMEM serum-free media supplemented with 5% BSA (fatty acid-free—SIGMA EC232-936-2) and glutamax (for Raw and MDCK cell lines) at a final concentration of 100 μM. The fatty acid-media solutions were sonicated for 15 minutes at room temperature and then allowed to pre-complex for 15 min at RT.\nCells were seeded with complete media onto 6-well plates (8×10^5 cells/2 ml/well). They were incubated for 24 h before the treatment. Then the growth medium was removed, cells washed once with PBS and 2 mL of the ω-alkynyl fatty-acyls containing media was added to cells and incubated at 37° C. in a 5% CO2 humidified incubator. […] To obtain a final proteome concentration of 2 mg/ml (protein concentration determined by BCA kit) cell lysates were concentrated by centrifugation for 15 minutes at 14,000 rpm at 4° C. with the Centrifugal Ultrafiltration Devices (Pall centrifugal devices MWCO 3K, Nanosep device, cat # P/N ODOO3C34). Protein extracts were then subjected to the probe labeling reaction in 25 μL volume, for 1 h at RT (room temperature), at final concentrations of the following reagents (See, Speers, A. E. & Cravatt, B. F. Profiling enzyme activities in vivo using click chemistry methods. Chem Biol 11, 535-46 (2004); Hsu, T. L. et al. Alkynyl sugar analogs for the labeling and visualization of glycoconjugates in cells. Proc Natl Acad Sci USA 104, 2614-9 (2007)): 0.1 mM biotin-azide, 1 mM Tris (2-carboxyethyl)phosphine hydrochloride (TCEP, Sigma-Aldrich) dissolved in water, 0.2 mM Tris[(1-benzyl-1H-1,2,3-triazol-4-yl)methyl]amine (TBTA, Sigma-Aldrich) dissolved in DMSO/t-butanol (20%/80%) and 1 mM CuSO4 in PBS. The order of addition of the reagents to the protein extracts is important for the reaction and has to be followed as described above.\n(§1) Western blotting: Labeled protein lysates were resolved by SDS page using a 4-20% Tris-glycine gel (1 h 10 min at 180V). For immunoblotting of biotin-labeled proteins after electrophoresis, proteins were transferred onto a nitrocellulose membrane, which was blocked with PBS, 0.1% Tween-20 [PBST] and 5% non-fat dried milk for 2 h at RT or overnight at 4° C. The membrane was washed three times with PBST (5 minutes each), and incubated with streptavidin-horseradish peroxidase (Invitrogen Zymed #43-4323, 1:1250 in PBST) for 1 h at RT. The membrane was washed with PBST three times (10 min each) and developed using enhanced chemiluminescence according to manufacturer's recommendation (Amersham Biosciences). For the hydroxylamine-sensitive assay, following the transfer of proteins to nitrocellulose membranes, the membranes were incubated 65 to 72 h at RT with PBST and 5% NH2OH (Sigma-Aldrich). After the hydroxylamine treatment, the membranes were blocked with 5% non-fat dried milk for 2 h at RT or overnight at 4° C. and analyzed by streptavidin blot as described above."}, "[2]": {"test_system": "MDCK cells", "test": "Hydroxylamine-sensitive assay of alkyne-labeled proteins (thioester vs amide linkage)", "type": "cell-based, canine", "conditions": "blots treated with 5% hydroxylamine for 72 h", "experimental": "These experiments validate the utility of C14 and C16 ω-alkynyl fatty-acyls as probes for protein myristoylation and palmitoylation, respectively.\nas §1"}, "[3]": {"test_system": "MDCK cells", "test": "Specificity of incorporation: cycloheximide treatment and competition with myristic and palmitic acids", "type": "cell-based, canine", "conditions": "for probe specificity from competition experiments with myristic and palmitic acids: increasing concentration of myristic (MA) or palmitic acid (PA)", "experimental": "MDCK cells were treated with C14 ω-alkynyl fatty acid (100 μM) in the presence or absence cycloheximide (100 μg/ml) for 5 h. Cellular proteome was prepared, reacted with biotin-azide, resolved by gel electrophoresis and detected by western blotting with streptavidin-HRP, as described using methods described herein. Asterisks denote bands labeled by treatment with probe but not in DMSO control; (B, C) Dose-dependent competition of C14 and C16 ω-alkynyl fatty acids with myristic (MA) and palmitic acids (PA), respectively. MDCK cells were treated with ω-alkynyl fatty acid probes as indicated in the presence of increasing concentration of myristic (MA) and palmitic acids (PA). Samples were processed as described herein.\nThe ω-alkynyl fatty-acyls were metabolically incorporated onto cellular proteins in a time- and dose-dependent manner.\nCells were seeded with complete media onto 6-well plates (8×10^5 cells/2 ml/well). They were incubated for 24 h before the treatment. Then the growth medium was removed, cells washed once with PBS and 2 mL of the ω-alkynyl fatty-acyls containing media was added to cells and incubated at 37° C. in a 5% CO2 humidified incubator. After 24 hours, the cells were washed three times with cold PBS and cell extracts were prepared by resuspending the cells in 400 μL of lysis buffer (1% Nonidet P-40/150 mM NaCl/protease and phosphatase inhibitor/100 mM sodium phosphate, pH 7.5). To obtain a final proteome concentration of 2 mg/ml (protein concentration determined by BCA kit) cell lysates were concentrated by centrifugation for 15 minutes at 14,000 rpm at 4° C. with the Centrifugal Ultrafiltration Devices (Pall centrifugal devices MWCO 3K, Nanosep device, cat # P/N ODOO3C34). […]\nWestern blotting: Labeled protein lysates were resolved by SDS page using a 4-20% Tris-glycine gel (1 h 10 min at 180V). […] After the hydroxylamine treatment, the membranes were blocked with 5% non-fat dried milk for 2 h at RT or overnight at 4° C. and analyzed by streptavidin blot as described above."}, "[4]": {"test_system": "PC3 prostate cancer cells", "test": "Fluorescence microscopy of cellular fatty-acylated proteins", "type": "cell-based", "conditions": "for subcellular distribution of probe: PC3 cells, 100 μM, 3 h, confocal microscopy", "quoted_text": "Cells were treated with DMSO or ω-alkynyl fatty-acyls (100 μM) as indicated for 3 h. The cells were then fixed, permeabilized and click reacted with rhodamine-azide and imaged by epifluorescence microscopy. […] All images were acquired the same way using 63× oil objective. The fluorescence along the z-axis is shown on top of each confocal section (Scale bar, 10 μm); (J, K, L) The distribution of lipid-modified proteins in different cellular states can be monitored by fluorescence imaging. […] The fluorescence along the z-axis is shown on the left-hand side of panel (K).\nCells were then fixed, permeabilized and click reacted with biotin-azide followed with treatment with streptavidin-conjugated Alexa488 and (optionally Hoechst stain for nuclei staining) and imaged using epifluorescence microscopy technique as described herein.\nFluorescence microscopy: Cells were seeded onto 12-well plates (4×10^5 cells/well) containing coverslips and incubated for 24 h before treatment. The growth medium was removed and cells were washed once with PBS before adding 1 mL of medium containing the co-alkynyl fatty acid at the indicated concentration. After 24-48 h incubation at 37° C./5% CO2, cells were washed three times with PBS to remove excess probe (ω-alkynyl fatty acid) and fixed with 4% paraformaldehyde (PFA) for 10 min at RT. Cells were then permeabilized with PBS/0.1% triton X-100 for 1-2 min at RT, washed extensively with the following reagents: 0.1 mM biotin-azide or rhodamine-azide, 1 mM Tris (2-carboxyethyl)phosphine hydrochloride (TCEP) dissolved in water, and 1 mM CuSO4 in PBS at RT for 1 h. The labeled cells were rinsed extensively with PBS and blocked in PBS/5% BSA for 45 min at RT. Cells were stained with streptavidin-conjugated AlexaFluor 488 (Invitrogen cat # S32354, 1:500) in PBS/5% BSA for 45 min at RT and nuclei were stained with Hoechst 33342 (MP # H21492; 1:10,000 in PBS) for 10 min at RT. For labeling with rhodamine-azide, cells were directly stained with Hoechst."}, "[5]": {"conditions": "PC3 cells undergoing cell division, tubulin marker"}},
  "data": [
    {"compound": "C#CCCCCCCCCCCCC(=O)O", "note": "[C14, 13-Tetradecyn-1-oic acid]", "values": [
      {"measurement": "degree of protein incorporation", "setting": "[1]", "value": "highest degree of protein incorporation"},
      {"measurement": "time dependence of levels of labeled protein bands", "setting": "[1]", "value": "time-dependent increase in the levels of labeled protein bands"},
      {"measurement": "dose dependence of metabolic incorporation", "setting": "[1]", "value": "dose-dependent metabolic incorporation"},
      {"measurement": "sensitivity of labeled proteins to hydroxylamine / type of linkage", "setting": "[2]", "value": "resistance to hydroxylamine treatment"},
      {"measurement": "probe specificity from competition experiments with myristic and palmitic acids", "setting": "[3]", "value": "specific probes for protein N-myristoylation"},
      {"measurement": "subcellular distribution of probe", "setting": "[4]", "value": "distributed in a punctuate pattern outside the nucleus"}
    ]},
    {"compound": "C[C@@H]1C[C@@H]([C@H](O)CC2CC(=O)NC(=O)C2)C(=O)[C@@H](C)C1", "note": "[cycloheximide, reference compound]", "values": [
      {"measurement": "effect on protein labeling with C14", "setting": "[3]; C14 100 μM, cycloheximide 100 μg/ml, 5 h", "value": "inhibits protein labeling with C14"}
    ]},
    {"compound": "C#CCCCCCCCC(=O)O", "note": "[C11]", "values": [
      {"measurement": "sensitivity of labeled proteins to hydroxylamine / type of linkage", "setting": "[2]", "value": "predominantly attach via thioester bonds"}
    ]},
    {"compound": "C#CCCCCCCCCCCCCCC(=O)O", "note": "[C16, 15-Hexadecyn-1-oic acid]", "values": [
      {"measurement": "degree of protein incorporation", "setting": "[1]", "value": "highest degree of protein incorporation"},
      {"measurement": "time dependence of levels of labeled protein bands", "setting": "[1]", "value": "time-dependent increase in the levels of labeled protein bands"},
      {"measurement": "dose dependence of metabolic incorporation", "setting": "[1]", "value": "dose-dependent metabolic incorporation"},
      {"measurement": "sensitivity of labeled proteins to hydroxylamine / type of linkage", "setting": "[2]", "value": "substantial sensitivity to hydroxylamine"},
      {"measurement": "probe specificity from competition experiments with myristic and palmitic acids", "setting": "[3]", "value": "S-palmitoylation"},
      {"measurement": "distribution of labeled proteins during cytokinesis", "setting": "[4]; [5]", "value": "concentrate at the cleavage furrow"},
      {"measurement": "distribution of labeled proteins in metaphase cells", "setting": "[4]; [5]", "value": "at the plasma membrane and in dense structures around the spindle and throughout the body"},
      {"measurement": "subcellular distribution of probe", "setting": "[4]", "value": "distributed in a punctuate pattern outside the nucleus"}
    ]}
  ]
}
